Data: BigSolDB 2.1

O=c1[nH]c2ccccc2c(=O)o1
solubility (mole fraction)
Details | 288.15 K | 293.15 K | 298.15 K | 303.15 K | 308.15 K | 313.15 K | 318.15 K | 323.15 K | 328.15 K
in 1,4-dioxane | 0.00839 | 0.00944 | 0.0107 | 0.0119 | 0.0133 | 0.0146 | – | 0.0179 | 0.0198
in 2-butanone | 0.00741 | 0.00805 | 0.00877 | 0.00964 | 0.0107 | 0.0117 | 0.0129 | 0.014 | 0.0153
in acetone | 0.00794 | 0.00873 | 0.00965 | 0.0109 | 0.0122 | 0.0135 | 0.0149 | 0.0165 | 0.0184
in acetonitrile | 0.003 | 0.0033 | 0.00374 | 0.0043 | 0.00485 | 0.00553 | 0.00624 | 0.00712 | 0.00797
in ethanol | 0.00134 | 0.0015 | 0.00175 | 0.00201 | 0.00239 | 0.00277 | 0.00328 | 0.00381 | 0.00439
in ethyl acetate | 0.0032 | 0.00352 | 0.00389 | 0.00434 | 0.00482 | 0.00533 | 0.00582 | 0.00636 | 0.00694
in isopropanol | 0.00104 | 0.00121 | 0.00144 | 0.00176 | 0.00216 | 0.00265 | 0.00316 | 0.0038 | 0.00457
in isopropyl acetate | 0.00185 | 0.00206 | 0.00234 | 0.00256 | 0.00291 | 0.00325 | 0.0036 | 0.00396 | 0.00434
in methanol | 0.00149 | 0.00173 | 0.00204 | 0.00243 | 0.00295 | 0.00354 | 0.00425 | 0.00507 | 0.00606
in methyl acetate | 0.00415 | 0.00464 | 0.00517 | 0.00573 | 0.00634 | 0.00699 | 0.00768 | 0.00844 | 0.00937
in n-propanol | 0.00116 | 0.00133 | 0.00152 | 0.00181 | 0.00208 | 0.0025 | 0.00291 | 0.00341 | 0.00394
in n-propyl acetate | 0.00229 | 0.00255 | 0.00285 | 0.00318 | 0.00351 | 0.00394 | 0.00434 | 0.00477 | 0.00534
